Results from patent US20120142766A1, “SUBSTITUTED 1,3-DIOXANES AND THEIR USES” (EVOLVA SA, priority 2007, published 2012).

Tests used:
[1] = system: Human platelet rich plasma; assay: TP receptor platelet aggregation, human (U-46619-induced); format: cell-based; conditions: 3 μM U-46619-induced
Procedure: (§1) Thrombosis Research 33:277-288.
TP Receptor Platelet Aggregation—Human:
Human (60±10 kg) platelet rich plasma
Assay. Inhibition of 3 μM U-46619-induced platelet aggregation Incubation Time, Temp: 5 minutes at 37° C. Incubation Buffer Trisodium Citrate (0.13 M)-treated fresh platelet rich plasma
(§2) Time of Assessment: 5 minutes
(§3) Quantification Method Optical Density Change

[2] = molecular target: T1, Thromboxane receptor (TP) (Homo sapiens, UniProt P21731); assay: TP receptor radioligand binding ([3H] SQ-29548); conditions: Human recombinant HEK-293 cells
T1 construct: expressed in transfected cells; host or cells: HEK-293
T1 sequence (P21731 1-343): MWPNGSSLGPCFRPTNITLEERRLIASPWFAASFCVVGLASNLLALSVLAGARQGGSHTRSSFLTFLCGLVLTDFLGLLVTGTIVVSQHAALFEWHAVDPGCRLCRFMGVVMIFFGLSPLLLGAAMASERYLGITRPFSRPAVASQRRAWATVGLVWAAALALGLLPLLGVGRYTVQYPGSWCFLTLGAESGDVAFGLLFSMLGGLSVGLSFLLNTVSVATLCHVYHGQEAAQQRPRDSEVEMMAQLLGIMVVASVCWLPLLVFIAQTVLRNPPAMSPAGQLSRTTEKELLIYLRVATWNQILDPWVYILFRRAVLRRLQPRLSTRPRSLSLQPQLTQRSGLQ
Procedure: The compounds were tested on radioligand binding assays for thromboxane receptor binding essentially as described by Hedberg et al. (1988) J. Pharmacol. Exp. Ther. 245:786-792 and Saussy et al. (1986) J. Biol. Chem. 261: 3025-3029 according to the following:
TP Receptor Radioligand Binding Studies:
Human recombinant HEK-293 cells,
Incubation Time, Temp: 30 minutes at 25° C.
Incubation Buffer: 50 mM Tris-HCl, pH 7.4, 154 mM NaCl
Non-Specific Ligand: 1 μM SQ-29548
The data were transformed to semi-log and then analysed using non-linear regression to a four-parameter dose-response curve Y=Bottom+(Top−Bottom)/(1+10̂((LogEC50−X)*HillSlope)) using the log(agonist) vs. response—Variable slope function of GraphPad Prism software (http://graphpad.com/help/prism5/prism5help.html?usitignonlinear_regression_step_by_s.htm).

Thromboxane synthase = molecular target: T2, Thromboxane synthase (Homo sapiens, UniProt P24557); assay: Human platelet thromboxane synthase assay; format: biochemical
T2 construct: Human Platelet Thromboxane Synthase Assay; from tissue; host or cells: human platelets
T2 sequence (P24557 1-533): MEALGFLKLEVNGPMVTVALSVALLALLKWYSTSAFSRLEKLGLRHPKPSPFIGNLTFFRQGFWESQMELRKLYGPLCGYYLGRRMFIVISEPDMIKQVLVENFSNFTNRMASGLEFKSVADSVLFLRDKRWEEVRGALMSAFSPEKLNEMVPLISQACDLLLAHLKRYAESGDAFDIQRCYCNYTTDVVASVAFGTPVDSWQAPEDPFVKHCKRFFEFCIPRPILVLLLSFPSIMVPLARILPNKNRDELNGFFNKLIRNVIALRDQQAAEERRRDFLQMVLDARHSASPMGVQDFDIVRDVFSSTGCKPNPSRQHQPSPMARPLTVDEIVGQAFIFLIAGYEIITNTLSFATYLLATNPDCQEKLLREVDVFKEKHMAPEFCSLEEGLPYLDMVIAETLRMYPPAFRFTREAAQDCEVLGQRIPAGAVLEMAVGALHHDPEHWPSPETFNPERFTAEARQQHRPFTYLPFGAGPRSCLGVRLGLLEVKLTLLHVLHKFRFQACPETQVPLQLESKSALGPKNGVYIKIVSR
Procedure: The compounds were tested for thromboxane synthase inhibition essentially as described by Borsch-Haubold A G, Pasquet S, Watson S P. (1998) Direct inhibition of cyclooxygenase-1 and -2 by the kinase inhibitors SB 203580 and PD 98059. […] 1. Imidazole derivatives. J Med. Chem. (10):1139-48 according to the following:
Pre-incubation time, temp: 15 minutes at 25° C. Incubation time, temp: 3 minutes at 25° C.
Incubation Buffer: 10 mM Tris-HCl, pH 7.4
Quantification Method: EIA quantification of TxB2

[3] = molecular target: T3, Human Recombinant (E. coli) PPARgamma (Homo sapiens, UniProt P37231); assay: PPAR gamma binding assay ([3H]-rosiglitazone); conditions: for Ki / IC50: [3H]-rosiglitazone 10 nM; for Ki: Cheng Prusoff, read-out: PPARγ binding Ki; for IC50: read-out: PPARγ binding IC50
T3 construct: host or cells: E. coli
T3 sequence (P37231 1-505): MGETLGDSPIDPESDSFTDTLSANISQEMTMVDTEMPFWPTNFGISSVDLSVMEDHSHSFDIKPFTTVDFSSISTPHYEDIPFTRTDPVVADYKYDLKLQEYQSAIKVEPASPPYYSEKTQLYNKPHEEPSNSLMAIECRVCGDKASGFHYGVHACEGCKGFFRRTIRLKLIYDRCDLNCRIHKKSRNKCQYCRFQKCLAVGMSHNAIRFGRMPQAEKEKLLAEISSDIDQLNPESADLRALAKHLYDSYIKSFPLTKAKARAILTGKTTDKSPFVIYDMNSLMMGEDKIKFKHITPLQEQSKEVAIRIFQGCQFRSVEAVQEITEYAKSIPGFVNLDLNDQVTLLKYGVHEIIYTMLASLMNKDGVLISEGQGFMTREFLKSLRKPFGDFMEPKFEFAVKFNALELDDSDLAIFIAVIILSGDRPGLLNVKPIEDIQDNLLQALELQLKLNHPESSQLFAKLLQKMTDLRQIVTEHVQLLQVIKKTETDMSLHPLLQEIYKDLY
Procedure: Incubation: 120 min. at 4° C.
The results are expressed as a percent of control specific binding ((measured specific binding/control specific binding)×100) obtained in the presence of the test compounds. The IC50 values (concentration causing a half-maximal inhibition of control specific binding) and Hill coefficients (nil) were determined by non-linear regression analysis of the competition curves generated with mean replicate values using Hill equation curve fitting (Y=D+[(A−D)/(1+(C/C50)nH)], where Y=specific binding, D=minimum specific binding, A=maximum specific binding, C=compound concentration, C50=IC50, and nH=slope factor). This analysis was performed using a software developed at Cerep (Hill software) and validated by comparison with data generated by the commercial software SigmaPlot® 4.0 for Windows® (© 1997 by SPSS Inc.). The inhibition constants (Ki) were calculated using the Cheng Prusoff equation (Ki=IC50/(1+(L/KD)), where L=concentration of radioligand in the assay, and KD=affinity of the radioligand for the receptor).

[4] = system: New Zealand Rabbit platelet rich plasma; assay: TP receptor platelet aggregation, rabbit (U-46619-induced); format: cell-based
Procedure: as §1
TP Receptor Platelet Aggregation—Rabbit:
New Zealand Rabbit (2.75±0.25 kg) platelet rich plasma
Assay: Inhibition of 1.5 μM U-46619-induced platelet aggregation Incubation Time, Temp: 5 minutes at 37° C. Incubation Buffer Trisodium Citrate (0.13 M)-treated platelet rich plasma
as §2, §3

[5] = system: arterial thrombosis in a mouse model; assay: Arterial thrombosis mouse model (FeCl3 on femoral artery); format: in vivo; conditions: dose not given
Procedure: The solutions are diluted 3.3-fold in saline and 100 μl/25 g is injected. Thus, the above-mentioned doses of 100 and 300 mg/kg of compound correspond to final doses of 30 and 100 mg/kg.
During the experiments, a soluble salt of the drug is provided (potassium salt of compound C), diluted in saline. Of this formulation, 100 μl/25 g is injected i.v. in the tail vein (dose of 100 mg/kg).
Solutions are injected (100 μl/25 g body weight) i.v. in the tail vein over 2 min to obtain doses of each compound of 30 mg/kg and 100 mg/kg. Aspirin is given the same way at a dose of 200 mg/kg. Clopidogrel is administered by oral gavage at a dose of 20 mg/kg at 6-7 hours prior to the experiment. The animals assigned to each group are matched for body weight. Mice are typically 8-10 weeks old males and are in a 100% Swiss genetic background.
The flow in each image is expressed as a percentage of that at the contralateral side, and data are averaged for all 120 images to determine total flow. The same analysis is performed for 10 min intervals (which gives essentially the same information as the area under the curve). […] Flow before treatment is recorded as 100%, and that in occluded arteries as 0%. At the end of the experiment, blood is collected on 0.01M citrate by heart puncture for determination of blood cell counts. Plasma is prepared by centrifugation and stored at −20° C. for determination of drug levels.
Statistical analysis for differences between two groups is performed by non-parametric Student t-test. Occlusion times >30 min were considered equal to 30 min for statistical analysis. Significance is set at p<0.05.

Row | SMILES | IC50 [1] [nM] | inhibition at 10 µM [2] [%] | IC50 (Thromboxane synthase) [nM] | inhibition at 10 µM (Thromboxane synthase; 10 μM) [%] | Ki [3] [nM] | IC50 [3] [nM] | inhibition at 30 µM ([4]; Oryctolagus cuniculus, Platelet, 30 μM, 1.5 μM U-46619-induced) [%] | Inhibition of platelet aggregation (in words) ([4]; Table 2) | IC50 ([2]; 5 nM [3H] SQ-29548) [nM] | Ki ([2]; 5 nM [3H] SQ-29548) [nM] | inhibition at 5 µM (Thromboxane synthase; 5 μM) [%] | Inhibition of thromboxane synthase (in words) (Thromboxane synthase; Table 2) | Occlusion time [5] | Total blood flow [5] | PPARgamma binding compared with Compound A (in words) ([3]; summary of Table 3) | inhibition at 30 µM ([1]; 30 μM) [%] | inhibition at 100 µM ([4]; Oryctolagus cuniculus, Platelet, 0.1 mM, 1.5 μM U-46619-induced) [%] | Thromboxane synthase Human platelet Inhibition (%) (Thromboxane synthase; 10 μM) | PPARγ binding (in words) ([3]; at 30 μM)
1 | O=C(O)CC/C=C\CC1COC(c2ccccc2Cl)OC1c1ccccc1O (racemic) [Compound A, (Z)-6-(-2-(2-chlorophenyl)-4-(2-hydroxyphenyl)-1,3-dioxan-5-yl)hex-4-enoic acid] | 1500 | 105 | 31900 | 16 | 4800 | 13000 | – | – | – | – | – | – | – | – | – | – | – | – | –
2 | COc1ccc(Oc2ccccc2C2OC[C@@H](C/C=C\CCC(=O)O)[C@@H](c3ccccc3O)O2)cc1 (stereo partly drawn) [Compound 1] | – | 101 | 354 | – | 800 | 2300 | 96 | potent inhibitors of platelet aggregation | 1.25 | 0.82 | 71 | inhibitors of thromboxane synthase | prolongs the occlusion time | improves total blood flow | at least as well as Compound A | – | – | – | –
3 | O=C(O)CC/C=C\C[C@H]1CO[C@@H](c2ccccc2Cl)O[C@H]1c1ccccc1O [Compound B, (Z)-6-((2R,4R,5S)-2-(2-chlorophenyl)-4-(2-hydroxyphenyl)-1,3-dioxan-5-yl)hex-4-enoic acid] | – | – | – | 25 | – | – | – | – | – | – | – | – | – | – | – | 13 | 15 | 28 | no binding
